Target: free peptide Cys-Lys-D-Ala-D-Ala
Assay: SPR binding to immobilized free peptide
Details: read-out: KD values from the current work, Free peptide, equilibrium fit, 25 °C

Row | Compound | Kd [µM]
1 | CN[C@H]1C(=O)N[C@@H]2Cc3ccc(cc3)Oc3cc4cc(c3O[C@@H]3O[C@H](C(=O)O)[C@@H](O)[C@H](O)[C@H]3NC(=O)CCCCCCCCC(C)C)Oc3ccc(cc3Cl)[C@@H](O)[C@@H]3NC(=O)[C@H](NC(=O)[C@@H]4NC(=O)[C@@H](NC2=O)c2cc(cc(O)c2Cl)Oc2cc1ccc2O)c1ccc(O)c(c1)-c1c(O[C@H]2O[C@H](CO)[C@@H](O)[C@H](O)[C@@H]2O)cc(O)cc1[C@@H](C(=O)NCCCN(C)C)NC3=O [Dalbavancin] | 0.855 ± 0.1
2 | CN[C@H](CC(C)C)C(=O)N[C@H]1C(=O)N[C@@H](CC(N)=O)C(=O)N[C@H]2C(=O)N[C@H]3C(=O)N[C@H](C(=O)N[C@H](C(=O)O)c4cc(O)cc(O)c4-c4cc3ccc4O)[C@H](O)c3ccc(c(Cl)c3)Oc3cc2cc(c3O[C@@H]2O[C@H](CO)[C@@H](O)[C@H](O)[C@H]2O[C@H]2C[C@](C)(N)[C@H](O)[C@H](C)O2)Oc2ccc(cc2Cl)[C@H]1O [Vancomycin] | 4.16 ± 0.52
3 | Ristocetin | 2.42 ± 0.68

Source: paper PMC3304006 (Journal of the American Chemical Society, 2012)
